For the experiment, the system named is Candida albicans. The experiment is described as follows: bioassay for antifungal activity against Candida albicans. The following applies: for Activity: Table 5, products of S. noursei nysC mutants, graded against nystatin of wild type (normal). The experiment is classed as cell-based. As for the experimental part: Preliminary analysis of the compounds produced by the S. noursei ERD44 and ERD48 was carried out. It was shown that a heptaenic compound produced by the ERD44 mutant has high antifungal activity against Candida albicans, an organism used in tests for antifungal activity. At this point it is not possible to accurately assay the activity of this compound (tentatively named S44), because it is not yet properly purified, and its exact concentration is difficult to estimate. […] This probably reflects the different states of modifications of the macrolactone ring by i.e. glycosylation at C19, hydroxylation at C10, or oxidation of the methyl group at C16. This could have been expected, since reduction of the macrolactone ring size most probably leads to the lower affinity of the modifying enzymes towards the new substrate.
Antifungal activity of the S48 mixture was tested, and found to constitute approx. 10% of nystatin activity. It seems probable that only one of the compounds in the S48 mixture produced by ERD48, which is fully decorated by the ring-modifying enzymes, is responsible for the antifungal activity detected. Thus, relative antifungal activity of this compound is impossible to assess prior to its purification Some of the […] antibiotics are known to have antibacterial, as well as antifungal activity (Ciftci, et al., J. Antibiot, v. 37: 876–884, 1984). It is thus possible that hexaenic compounds produced by the ERD48 mutant can be used for production of antibacterial agents The changes in the NysC protein leading to production of new polyene compounds in ERD44 and ERD48 mutants, along with the predicted structures of their macrolactone rings are presented in FIG. 5.
The recombinant S.noursei strain selected after this procedure was designated NPR1.1 The S. noursei NPR1.1 recombinant strain was shown by Southern blot analysis to contain the desired deletion in the DH8-coding sequence of nysC. […] The relative mobility of these compounds differed from nystatin, and no UV spectra characteristic for nystatin could be detected in the extracts. […] However, the NPR1 mutant can be potentially useful for further manipulations with the nystatin PKS.

As for `CC1/C=C/C=C/C=C/C=C/C=C/C=C/C=C/C(O)CC2OC(O)(CC(O)CCCC(O)CC(O)CC(O)CC(=O)OC(C)[C@H](C)C1O)CC(O)C2C` (stereo partly shown) [S44], the Activity result is reported as “high”. Further, the “antifungal activity against Candida albicans” value (result in words, unpurified compound or culture extracts) was “high”. Under “rough estimates based on UV absorbance, compound not properly purified, concentration difficult to estimate”, the “antifungal activity compared to nystatin” value is 4–5 times.

`C[C@@H]1[C@H](O)[C@@H](C)/C=C/C=C/CC/C=C/C=C/C=C/C=C/C(O[C@H]2O[C@H](C)[C@@H](O)[C@H](N)[C@@H]2O)CC2O[C@](O)(CC(O)C(O)CCC(O)CC(O)CC(O)CC(=O)O[C@H]1C)CC(O)C2C(=O)O` (stereo partly shown) [nystatin]: the Activity result is recorded as “normal”.

(Values after patent US7141660B2, “Genes encoding a nystatin polyketide synthase and their manipulation and utility” (Sinvent AS, priority 2000, dated 2006).)
